Measurements as given in ChEMBL document CHEMBL5576113, “A method for estimation of plasma protein binding using diffusion ordered NMR spectroscopy (DOSY)” (RSC Med Chem, 2024).

What was measured:
Albumin [1] = target: T1, Albumin (Bos taurus, UniProt P02769); test: Plasma protein binding in bovine serum albumin assessed as fraction bound at 5:1 ratio of compound and BSA by 1H DOSY NMR spectrophotometric analysis; assay type: ADME; details: cattle, read-out: PPB (converted)
Albumin [2] = target: T1, Albumin; test: Plasma protein binding in bovine serum albumin assessed as fraction bound at 10:1 ratio of compound and BSA by 1H DOSY NMR spectrophotometric analysis; assay type: ADME; details: cattle, read-out: PPB (converted)
Albumin [3] = target: T1, Albumin; test: Plasma protein binding in bovine serum albumin assessed as fraction bound at 20:1 ratio of compound and BSA by 1H DOSY NMR spectrophotometric analysis; assay type: ADME; details: cattle, read-out: PPB (converted)
[4] = Plasma protein binding in human plasma incubated for 18 hrs by equilibrium dialysis
Albumin [5] = target: Albumin (Homo sapiens, UniProt P02768); test: Plasma protein binding in human albumin at 1 to 20 ug/ml incubated for 30 mins; assay type: ADME; details: at 1 to 20 µg/mL, dose 1-20 µg/ml, read-out: PPB (converted)
Sequence of Albumin (Homo sapiens, UniProt P02768) (P02768 whole entry): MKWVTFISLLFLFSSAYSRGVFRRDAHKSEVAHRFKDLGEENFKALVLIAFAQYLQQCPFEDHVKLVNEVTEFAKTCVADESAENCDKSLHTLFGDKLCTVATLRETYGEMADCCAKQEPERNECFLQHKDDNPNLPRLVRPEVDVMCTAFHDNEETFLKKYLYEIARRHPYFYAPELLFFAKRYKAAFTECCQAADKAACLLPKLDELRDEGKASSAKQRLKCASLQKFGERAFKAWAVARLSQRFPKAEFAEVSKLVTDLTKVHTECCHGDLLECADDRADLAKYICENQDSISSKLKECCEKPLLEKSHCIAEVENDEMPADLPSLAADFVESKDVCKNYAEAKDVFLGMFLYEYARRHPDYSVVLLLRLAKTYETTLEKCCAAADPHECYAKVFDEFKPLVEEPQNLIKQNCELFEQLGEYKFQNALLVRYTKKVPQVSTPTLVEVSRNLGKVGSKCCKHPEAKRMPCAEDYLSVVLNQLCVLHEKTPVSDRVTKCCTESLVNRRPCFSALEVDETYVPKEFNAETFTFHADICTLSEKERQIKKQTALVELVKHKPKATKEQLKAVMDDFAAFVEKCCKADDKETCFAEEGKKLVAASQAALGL

T1 sequence (P02769 whole entry): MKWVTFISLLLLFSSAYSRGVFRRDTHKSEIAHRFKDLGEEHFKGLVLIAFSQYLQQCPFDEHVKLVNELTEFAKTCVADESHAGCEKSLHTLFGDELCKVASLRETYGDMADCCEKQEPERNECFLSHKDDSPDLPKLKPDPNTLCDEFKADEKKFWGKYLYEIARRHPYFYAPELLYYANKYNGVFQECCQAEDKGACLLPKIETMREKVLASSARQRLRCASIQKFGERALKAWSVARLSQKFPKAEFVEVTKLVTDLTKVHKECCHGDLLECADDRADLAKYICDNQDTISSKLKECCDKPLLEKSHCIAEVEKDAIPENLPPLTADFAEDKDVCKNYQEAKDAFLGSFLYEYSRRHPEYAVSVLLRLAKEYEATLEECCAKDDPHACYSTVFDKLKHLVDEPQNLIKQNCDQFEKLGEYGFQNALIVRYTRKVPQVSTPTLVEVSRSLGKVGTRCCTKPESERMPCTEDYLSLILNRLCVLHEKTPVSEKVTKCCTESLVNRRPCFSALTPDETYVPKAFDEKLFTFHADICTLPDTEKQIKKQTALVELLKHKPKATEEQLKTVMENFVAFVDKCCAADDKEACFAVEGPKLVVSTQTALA

| Structure (SMILES) | fraction unbound (Albumin [1]) | fraction unbound (Albumin [2]) | fraction unbound (Albumin [3]) | fraction unbound at 18 h [4] | fraction unbound at 0.5 h (Albumin [5]) |
| --- | --- | --- | --- | --- | --- |
| CC(C)NCC(O)COc1cccc2ccccc12 (configuration not stated) [PROPRANOLOL] | 0.21 | 0.41 | 0.49 | 0.14 |  |
| N[C@H]1C(O)O[C@H](CO)[C@@H](O)[C@@H]1O (some centres not stated) [GLUCOSAMINE] | 0.26 | 0.46 | 0.71 |  |  |
| OC[C@H]1OC(O)[C@H](O)[C@@H]1O (some centres not stated) | 0.11 | 0.25 | 0.36 |  |  |
| CC(=O)Oc1ccccc1C(=O)O [ASPIRIN] | 0.1 | 0.16 | 0.48 |  |  |
| Cn1c(=O)c2c(ncn2C)n(C)c1=O [CAFFEINE] | 0.27 | 0.67 | 0.71 |  | 0.625 |
| COc1ccc2nc([S@@+]([O-])Cc3ncc(C)c(OC)c3C)[nH]c2c1 [ESOMEPRAZOLE] |  | 0.02 | 0.04 |  |  |
| CN/C(=N/CCSCc1nc[nH]c1C)NC#N [CIMETIDINE] | 0.42 | 0.66 | 0.74 |  |  |
